Test results from patent US20230322756A1, “FUSED IMIDAZOLE DERIVATIVE, PREPARATION METHOD THEREFOR, AND MEDICAL USE THEREOF” (JIANGSU HENGRUI MEDICINE CO., LTD., priority 2020, published 2023).
pIC50: −log10 of the molar value.

Key:
[1] = molecular target: CYP3A4M (Homo sapiens (Human), UniProt P08684); assay: Inhibition of human liver microsome CYP450 enzyme, CYP3A4M midazolam site; format: in vitro ADME; details: human liver microsomes, probe substrate midazolam
Method: (§1) I. Materials and Instruments • 1. Phosphate buffered saline (20×PBS, purchased from Sangon); • 2. NADPH (ACROS, A2646-71-1); • 3. Human liver microsome (Corning Gentest, Cat No. 452161, Lot No. 905002, Donor35); • 4. ABI QTrap 4000 LC-MS System (AB Sciex); • 5. ZORBAX Extend-C18, 3×50 mm, 3.5 μm (Agilent, USA); • 6. CYP probe substrate.
(§2) An appropriate amount of human liver microsome stock solution (20 mg/mL) was diluted to obtain a 0.25 mg/mL microsome solution with 7.5 mM MgCl2 solution for later use (prepared right before use).
(§3) b. An appropriate amount of the stock solution was precisely pipetted, and diluted into series solution I at the concentrations of 10 mM, 3 mM, 1 mM, 0.3 mM, 0.03 mM and 0.003 mM with an appropriate amount of DMSO solution. An appropriate amount of the above series solution I was precisely pipetted, and diluted to obtain series solution II at the concentrations of 3 mM, 1 mM, 0.3 mM, 0.1 mM, 0.03 mM, 0.003 mM and 0.0003 mM with an appropriate amount of acetonitrile. An appropriate amount of the above series solution II was precisely pipetted, and diluted with PBS to obtain a working solution at the concentrations of 150 μM, 50 μM, 15 μM, 5 μM, 1.5 μM, 0.15 μM and 0.015 μM for later use.
(§4) 3. Procedures • 1) 40 μL of human liver microsome solution (0.25 mg/mL), 20 μL of probe substrate solution and 20 μL of test compound solution were precisely pipetted into a 96-well plate and pre-incubated for 5 min under a water bath at 37° C. • 2) After 5 min of pre-incubation, the mixture was taken out, 20 μL of 5 mM NADPH solution was added to initiate the reaction, and the resulting mixture was incubated for 30 min under a water bath at 37° C. […]
(§5) The values were calculated by Graphpad Prism to obtain the IC50 values for the inhibition of drugs on CYP1A2 phenacetin, CYP2C19 (S)-mephenytoin and CYP3A4M midazolam sites of metabolism in human liver microsomes, as shown in Table 7.

[2] = molecular target: CYP1A2 (Homo sapiens (Human), UniProt P05177); assay: Inhibition of human liver microsome CYP450 enzyme, CYP1A2 phenacetin site; format: in vitro ADME; details: human liver microsomes, probe substrate phenacetin
Sequence of CYP1A2 (P05177 whole entry): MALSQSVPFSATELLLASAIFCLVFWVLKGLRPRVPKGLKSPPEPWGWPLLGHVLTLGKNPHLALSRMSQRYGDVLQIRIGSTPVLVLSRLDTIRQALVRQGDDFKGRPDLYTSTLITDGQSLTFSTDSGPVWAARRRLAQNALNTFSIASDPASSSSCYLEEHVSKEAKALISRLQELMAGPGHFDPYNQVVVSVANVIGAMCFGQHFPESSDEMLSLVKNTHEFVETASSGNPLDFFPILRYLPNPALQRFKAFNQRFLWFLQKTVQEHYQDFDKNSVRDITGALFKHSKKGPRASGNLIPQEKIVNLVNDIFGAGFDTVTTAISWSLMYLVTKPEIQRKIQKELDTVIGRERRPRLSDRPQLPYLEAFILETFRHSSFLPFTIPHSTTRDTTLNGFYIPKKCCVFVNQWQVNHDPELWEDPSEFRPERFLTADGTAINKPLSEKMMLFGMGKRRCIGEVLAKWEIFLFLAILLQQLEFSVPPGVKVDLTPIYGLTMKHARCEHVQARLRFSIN
Method: as §1, §2, §3, §4, §5

[3] = molecular target: CYP2C19 (Homo sapiens (Human), UniProt P33261); assay: Inhibition of human liver microsome CYP450 enzyme, CYP2C19 (S)-mephenytoin site; format: in vitro ADME; details: human liver microsomes, probe substrate (S)-mephenytoin
Sequence of CYP2C19 (P33261 whole entry): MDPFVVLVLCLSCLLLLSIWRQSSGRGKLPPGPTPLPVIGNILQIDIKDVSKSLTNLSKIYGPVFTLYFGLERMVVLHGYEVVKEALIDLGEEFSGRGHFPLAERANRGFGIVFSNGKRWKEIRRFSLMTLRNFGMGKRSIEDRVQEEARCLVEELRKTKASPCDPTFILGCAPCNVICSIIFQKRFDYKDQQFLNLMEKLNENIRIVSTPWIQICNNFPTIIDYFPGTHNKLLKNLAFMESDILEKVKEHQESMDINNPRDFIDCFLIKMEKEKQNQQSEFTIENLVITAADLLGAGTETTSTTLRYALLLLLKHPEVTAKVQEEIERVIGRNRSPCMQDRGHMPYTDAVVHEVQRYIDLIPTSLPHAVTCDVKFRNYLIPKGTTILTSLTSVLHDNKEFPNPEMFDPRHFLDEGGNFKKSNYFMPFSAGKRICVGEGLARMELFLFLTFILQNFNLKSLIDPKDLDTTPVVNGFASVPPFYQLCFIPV
Method: as §1, §2, §3, §4, §5

[4] = molecular target: hERG potassium channel (Homo sapiens (Human), UniProt Q12809); assay: Blocking effect on hERG potassium currents, manual patch-clamp in CHO cells stably expressing hERG channel; format: cell-based; details: read-out: IC50 for the blocking effect on the hERG potassium ion channel
Sequence of hERG potassium channel (Q12809 whole entry): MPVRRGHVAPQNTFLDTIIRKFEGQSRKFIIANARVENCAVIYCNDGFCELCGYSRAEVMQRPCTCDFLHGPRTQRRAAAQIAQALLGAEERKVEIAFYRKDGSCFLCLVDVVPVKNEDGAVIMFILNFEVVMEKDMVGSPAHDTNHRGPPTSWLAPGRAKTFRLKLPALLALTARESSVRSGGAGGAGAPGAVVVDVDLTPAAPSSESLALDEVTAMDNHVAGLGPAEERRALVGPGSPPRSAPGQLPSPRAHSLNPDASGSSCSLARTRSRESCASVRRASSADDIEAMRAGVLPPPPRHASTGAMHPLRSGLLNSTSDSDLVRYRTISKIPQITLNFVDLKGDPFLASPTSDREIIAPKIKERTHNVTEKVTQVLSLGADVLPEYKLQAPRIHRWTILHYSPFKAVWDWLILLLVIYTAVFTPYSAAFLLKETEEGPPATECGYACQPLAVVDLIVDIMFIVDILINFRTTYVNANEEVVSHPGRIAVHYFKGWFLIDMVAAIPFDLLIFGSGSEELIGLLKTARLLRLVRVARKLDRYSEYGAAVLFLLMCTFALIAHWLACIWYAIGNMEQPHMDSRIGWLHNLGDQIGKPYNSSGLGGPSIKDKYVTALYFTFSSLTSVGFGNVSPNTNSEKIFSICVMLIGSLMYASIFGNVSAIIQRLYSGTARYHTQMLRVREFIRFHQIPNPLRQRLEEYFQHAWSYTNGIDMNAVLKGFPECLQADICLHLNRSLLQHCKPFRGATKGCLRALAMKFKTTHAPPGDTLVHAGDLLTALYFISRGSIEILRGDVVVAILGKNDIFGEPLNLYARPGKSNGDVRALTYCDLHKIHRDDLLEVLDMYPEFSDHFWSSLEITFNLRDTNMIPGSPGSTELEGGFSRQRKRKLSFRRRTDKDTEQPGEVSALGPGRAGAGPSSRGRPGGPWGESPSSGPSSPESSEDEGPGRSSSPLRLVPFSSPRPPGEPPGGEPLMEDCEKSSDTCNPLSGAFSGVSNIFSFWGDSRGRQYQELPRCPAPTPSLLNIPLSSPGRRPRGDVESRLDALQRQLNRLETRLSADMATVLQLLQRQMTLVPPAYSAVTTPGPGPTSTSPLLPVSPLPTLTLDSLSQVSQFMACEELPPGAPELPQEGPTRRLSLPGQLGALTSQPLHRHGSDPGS
From the text: This example is intended to assess the blocking effect of the compounds of the present disclosure and positive compound 1 (see the compound of Example 7 on page 125 of WO2019239319A1) on hERG potassium currents in a stable cell strain transfected with an hERG potassium channel by a manual patch-clamp assay. The structure of positive compound 1 is shown below:
The cells used in this experiment were from a CHO cell line (provided by Sophion Bioscience, Denmark) transfected with hERG cDNA and stably expressing hERG channel at cell passage number of P5. Cells were cultured in a medium containing the following components (all from Invitrogen): Ham's F12 medium, 10% (v/v) inactivated fetal bovine serum, 100 μg/mL hygromycin B, and 100 μg/mL geneticin.
CHO hERG cells were grown in a culture dish containing the above culture medium and cultured in an incubator at 37° C. with 5% CO2. 24-48 h before the electrophysiological experiment, CHO hERG cells were transferred to round slides placed in the culture dish and grown in the same culture medium and culture conditions as above. The density of CHO hERG cells on each round slide was required to achieve the requirement that most cells were independent and individual.
In this experiment, a manual patch-clamp system (HEKA EPC-10 signal amplifier and digital conversion system, purchased from HEKA Electronics, Germany) was used for whole cell current recording. Round slides with CHO hERG cells grown on the surface were placed in an electrophysiological recording chamber under an inverted microscope. The chamber was continuously perfused with extracellular fluid (approximately 1 mL/min). The experimental procedures were performed by conventional whole-cell patch-clamp current recording technology. Unless otherwise stated, the experiment was performed at room temperature ([…]). The cells were clamped at a voltage of −80 mV. The cell clamp voltage was depolarized to +20 mV to activate the hERG potassium channel, and then clamped to −50 mV 5 s later to eliminate inactivation and generate tail currents. The tail current peak was used as a value for the numeral value of the hERG current. After the hERG potassium currents recorded in the above step were stable under the continuous extracellular fluid perfusion in the recording chamber, the drug to be tested could be added for perfusion until the inhibitory effect of the drug on the hERG current reached a stable state. Generally, the last superposition of 3 consecutive current recording lines is used as a criterion for determining whether a stable state is reached. […]
The experimental data were analyzed by data analysis software supplied by HEKA Patchmaster(V2x73.2), Microsoft Excel, and Graphpad Prism 5.0. […]

Sequence of CYP3A4M (P08684 whole entry): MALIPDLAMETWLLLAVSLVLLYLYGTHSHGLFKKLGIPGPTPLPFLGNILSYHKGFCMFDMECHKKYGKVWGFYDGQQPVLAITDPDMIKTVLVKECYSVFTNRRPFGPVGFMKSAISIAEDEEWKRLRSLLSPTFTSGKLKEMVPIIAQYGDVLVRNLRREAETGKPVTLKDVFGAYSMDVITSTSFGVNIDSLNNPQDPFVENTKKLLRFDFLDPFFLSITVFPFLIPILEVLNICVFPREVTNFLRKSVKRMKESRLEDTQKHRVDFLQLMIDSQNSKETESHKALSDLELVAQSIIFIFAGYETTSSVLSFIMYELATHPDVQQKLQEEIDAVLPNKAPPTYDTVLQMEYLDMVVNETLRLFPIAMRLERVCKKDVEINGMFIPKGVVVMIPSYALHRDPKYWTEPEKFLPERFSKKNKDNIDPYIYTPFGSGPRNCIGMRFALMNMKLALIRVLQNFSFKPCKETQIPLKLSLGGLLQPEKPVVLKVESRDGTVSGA

| SMILES | IC50 [1] | IC50 [2] | IC50 [3] | pIC50 [4] |
| --- | --- | --- | --- | --- |
| O=C(O)c1ccc2nc(CN3CCC(c4cccc5c4O[C@@H](c4ccc(Cl)cc4F)CO5)CC3)n(C[C@@H]3CCO3)c2n1 [Example 5, 2-((4-((S)-3-(4-Chloro-2-fluorophenyl)-2,3-dihydrobenzo[b][1,4]dioxan-5-yl)piperidin-1-yl)methyl)-3-((S)-oxetan-2-ylmethyl)-3H-imidazo[4,5-b]pyridine-5-carboxylic acid] | > 30 µM | > 30 µM | > 30 µM | 4.59 |
| C[C@]1(c2ccc(Cl)cc2F)Oc2cccc(C3CCN(Cc4nc5ccc(C(=O)O)cc5n4C[C@@H]4CCO4)CC3)c2O1 [Positive compound 1, reference compound] | 25.5 µM | 12.5 µM | 7.4 µM | 5.34 |
| O=C(O)c1ccc2nc(CN3CCC(c4cccc5c4O[C@@H](c4ccc(Cl)cc4F)CO5)CC3)n(C[C@@H]3CCO3)c2c1 [Example 4, 2-((4-((S)-3-(4-Chloro-2-fluorophenyl)-2,3-dihydrobenzo[b][1,4]dioxan-5-yl)piperidin-1-yl)methyl)-1-(((S)-oxetan-2-yl)methyl)-1H-benzo[d]imidazole-6-carboxylic acid] | > 30 µM | > 30 µM | > 30 µM | 5.00 |
